From patent publication US20220026414A1, “CELL-BASED BIOIDENTITY TEST FOR INSULIN” (Merck Sharp & Dohme Corp., priority 2018, published 2022)

System: human G6PC promoter luciferase reporter in H4IIE rat hepatoma cells
Assay: H4IIE G6P-Luc reporter assay (luciferase under control of the G6PC promoter, clone C17-2)
Type: cell-based
Details: for Geometric mean of measured relative potency: pre-qualification study
Description: The H4IIE G6P-Luc C17-2 stable cell line was generated by stably expressing Luciferase reporter gene under the control of G6PC promoter via lentivirus technology. Briefly, the human G6PC promoter −1227/+57 sequence (SEQ ID NO: 1) was synthesized and subcloned into pLenti-NFAT-Luc vector to replace NFAT promoter. Lentivirus was generated comprising the construct and H4IIE parental cells were transduced with the lentivirus and screened with the selection antibiotic Hygromycin B. The resulting stable pool cells were validated by quantitative polymerase chain reaction (qPCR) and luciferase assay. The initial work of generating a H4IIE G6P-Luc stable cell line was outsourced to GenScript, Piscataway, N.J. USA. The stable cell pool was re-cloned in-house with limiting dilutions to identify additional clones. H4IIE_G6P-Luc C17-2 is a single clone stable cell line selected for its high assay window (difference in fluorescence detected in a sample containing 1 nM insulin versus fluorescence detected in a sample containing no insulin) and fast growth rate.
The H4IIE_G6P-Luc_C17-2 cells were cultured in Dulbecco's Modified Eagle's medium (DMEM), supplemented with 10% fetal bovine serum (FBS), 1× penicillin-streptomycin, and 0.3 mg/mL Hygromycin B. […] 25 μL insulin titration was aliquoted into the wells of a solid white 96-well tissue-culture treated assay plate. […] Afterwards, […] of ONE-GLO luciferase regent was added to the assay plate. After 10 minutes incubation at room temperature, luminescence signal was read on the EnVision plate reader (Perkin Elmer, Waltham, Mass. USA).

Substance | inhibition of luciferase reporter expression (clone C17-2, 7-hour treatment (FIG. 2A)) | inhibition of luciferase expression (clone C17-2, lower amounts of FBS in assay medium (FIG. 2C)) | inhibition of luciferase reporter expression (clone C17-2, overnight treatment (17-hours) (FIG. 2A)) | dose response curve (clone C17-2 after 29 cell passages (P29) (FIG. 2D)) | Geometric mean of measured relative potency (target relative potency 50% of reference material, N=12) | Geometric mean of measured relative potency (target relative potency 71% of reference material, N=12) | Geometric mean of measured relative potency (target relative potency 100% of reference material, N=24) | Geometric mean of measured relative potency (target relative potency 141% of reference material, N=12) | Geometric mean of measured relative potency (target relative potency 200% of reference material, N=12) | inhibition of luciferase reporter expression (top two clones (C17, C58), overnight treatment compared with seven-hour treatment (FIG. 1C))
Insulin glargine | mild inhibition | Less inhibition of luciferase expression | robust inhibition | well-formed dose response curve | 51 | 68 | 103 | 132 | 196 | 
recombinant human insulin: NOVOLIN (recombinant human insulin) purchased from Novo Nordisk |  |  |  |  |  |  |  |  |  | significantly better inhibition
